Reference: patent publication US11572590B2, “Methods for evaluating tumor cell spheroids using 3D microfluidic cell culture device” (Dana-Farber Cancer Institute, Inc., priority 2017, dated 2023)
Read-outs that look alike come from different tables or passages of the source.

Experiments:
Assay in all cases: SelectScreen Kinase Profiling, single point inhibition and IC50 for off-target kinases
Assay type in all cases: biochemical
off-target kinases [1] = molecular target: off-target kinases (Homo sapiens, UniProt O00750); conditions: PIK3C2B (PI3K-C2 beta), Adapta, ATP 10
off-target kinases (Homo sapiens, UniProt O00750), sequence (O00750 whole entry): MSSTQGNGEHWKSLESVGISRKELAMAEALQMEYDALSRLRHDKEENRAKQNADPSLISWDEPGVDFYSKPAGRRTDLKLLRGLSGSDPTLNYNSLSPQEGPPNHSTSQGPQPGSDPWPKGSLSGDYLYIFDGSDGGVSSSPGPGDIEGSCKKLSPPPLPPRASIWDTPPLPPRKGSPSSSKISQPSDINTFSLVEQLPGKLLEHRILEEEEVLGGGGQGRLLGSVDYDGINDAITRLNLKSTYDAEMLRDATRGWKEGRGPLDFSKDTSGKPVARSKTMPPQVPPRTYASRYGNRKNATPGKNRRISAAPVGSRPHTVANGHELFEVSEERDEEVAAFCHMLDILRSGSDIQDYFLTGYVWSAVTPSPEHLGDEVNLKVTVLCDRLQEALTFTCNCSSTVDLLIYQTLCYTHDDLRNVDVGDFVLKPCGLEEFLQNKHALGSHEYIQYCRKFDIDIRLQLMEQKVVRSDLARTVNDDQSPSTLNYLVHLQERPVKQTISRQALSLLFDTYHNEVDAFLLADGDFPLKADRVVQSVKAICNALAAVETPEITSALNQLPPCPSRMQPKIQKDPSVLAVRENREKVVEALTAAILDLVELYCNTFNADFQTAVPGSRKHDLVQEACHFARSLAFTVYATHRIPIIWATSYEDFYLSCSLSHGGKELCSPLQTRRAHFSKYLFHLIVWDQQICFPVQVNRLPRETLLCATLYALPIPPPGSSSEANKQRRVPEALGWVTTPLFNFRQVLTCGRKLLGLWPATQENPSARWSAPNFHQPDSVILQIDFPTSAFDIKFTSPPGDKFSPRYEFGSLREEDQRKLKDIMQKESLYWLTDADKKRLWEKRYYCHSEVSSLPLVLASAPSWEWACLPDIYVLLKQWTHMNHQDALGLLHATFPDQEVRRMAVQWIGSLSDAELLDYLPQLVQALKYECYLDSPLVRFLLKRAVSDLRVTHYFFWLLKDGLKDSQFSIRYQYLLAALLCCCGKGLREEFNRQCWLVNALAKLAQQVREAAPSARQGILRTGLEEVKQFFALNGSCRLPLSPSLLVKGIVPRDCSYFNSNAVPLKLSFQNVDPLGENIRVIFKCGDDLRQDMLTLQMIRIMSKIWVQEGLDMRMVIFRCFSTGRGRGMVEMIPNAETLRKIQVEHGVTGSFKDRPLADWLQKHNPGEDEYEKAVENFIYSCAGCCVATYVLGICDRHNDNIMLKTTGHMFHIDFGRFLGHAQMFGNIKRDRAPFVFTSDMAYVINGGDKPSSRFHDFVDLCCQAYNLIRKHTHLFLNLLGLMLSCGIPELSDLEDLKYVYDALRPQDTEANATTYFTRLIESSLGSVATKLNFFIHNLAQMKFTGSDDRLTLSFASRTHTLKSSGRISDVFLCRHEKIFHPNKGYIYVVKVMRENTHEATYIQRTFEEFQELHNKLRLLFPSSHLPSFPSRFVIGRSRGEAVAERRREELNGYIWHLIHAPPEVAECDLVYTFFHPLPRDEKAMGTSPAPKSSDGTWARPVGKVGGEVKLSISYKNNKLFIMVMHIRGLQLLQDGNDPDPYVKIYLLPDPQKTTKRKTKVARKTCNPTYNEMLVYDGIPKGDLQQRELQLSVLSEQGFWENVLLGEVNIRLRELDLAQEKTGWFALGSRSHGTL

off-target kinases [2] = molecular target: T1, off-target kinases (Homo sapiens, UniProt P33981); conditions: TTK, LanthaScreen Binding
T1 sequence (P33981 1-857): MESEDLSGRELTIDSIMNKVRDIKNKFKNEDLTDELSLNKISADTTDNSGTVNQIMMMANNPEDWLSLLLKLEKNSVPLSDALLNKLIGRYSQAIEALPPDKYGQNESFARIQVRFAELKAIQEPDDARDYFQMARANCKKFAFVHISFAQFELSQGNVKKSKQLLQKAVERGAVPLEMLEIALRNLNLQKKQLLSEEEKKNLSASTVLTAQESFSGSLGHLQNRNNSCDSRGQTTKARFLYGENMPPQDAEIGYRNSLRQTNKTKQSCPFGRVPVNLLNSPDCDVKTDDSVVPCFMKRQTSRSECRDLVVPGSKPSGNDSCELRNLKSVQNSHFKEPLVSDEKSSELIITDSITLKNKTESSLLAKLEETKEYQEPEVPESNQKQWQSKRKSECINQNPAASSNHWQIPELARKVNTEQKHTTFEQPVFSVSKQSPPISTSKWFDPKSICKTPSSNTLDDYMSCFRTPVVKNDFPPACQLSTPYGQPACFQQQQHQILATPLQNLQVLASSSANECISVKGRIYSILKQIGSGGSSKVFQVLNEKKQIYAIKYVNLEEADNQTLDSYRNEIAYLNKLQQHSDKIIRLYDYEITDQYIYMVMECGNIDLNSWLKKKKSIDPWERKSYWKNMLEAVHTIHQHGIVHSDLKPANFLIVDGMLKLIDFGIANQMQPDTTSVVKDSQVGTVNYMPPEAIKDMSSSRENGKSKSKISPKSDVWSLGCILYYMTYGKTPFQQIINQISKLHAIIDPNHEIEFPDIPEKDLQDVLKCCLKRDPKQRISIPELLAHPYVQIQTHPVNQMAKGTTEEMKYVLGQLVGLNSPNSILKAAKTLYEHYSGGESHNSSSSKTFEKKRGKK

off-target kinases [3] = molecular target: off-target kinases (Homo sapiens, UniProt P45983); conditions: MAPK8 (JNK1)
off-target kinases (Homo sapiens, UniProt P45983), sequence (P45983 whole entry): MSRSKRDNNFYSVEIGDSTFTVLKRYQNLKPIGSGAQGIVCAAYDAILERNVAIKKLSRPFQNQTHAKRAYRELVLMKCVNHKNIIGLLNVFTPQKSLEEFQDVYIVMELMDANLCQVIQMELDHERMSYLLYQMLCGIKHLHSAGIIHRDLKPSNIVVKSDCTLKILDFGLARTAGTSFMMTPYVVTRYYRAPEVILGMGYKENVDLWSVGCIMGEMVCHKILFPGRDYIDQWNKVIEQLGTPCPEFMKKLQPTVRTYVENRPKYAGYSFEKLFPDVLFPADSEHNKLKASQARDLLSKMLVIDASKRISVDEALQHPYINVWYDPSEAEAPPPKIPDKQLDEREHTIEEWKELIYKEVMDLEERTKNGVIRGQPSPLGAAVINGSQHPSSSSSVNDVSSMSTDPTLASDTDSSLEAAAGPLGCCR

off-target kinases [4] = molecular target: off-target kinases (Homo sapiens, UniProt Q5S007, R1441C); conditions: LRRK2 R1441C, ATP Km app, Adapta
off-target kinases [5] = molecular target: T2, off-target kinases (Homo sapiens, UniProt Q9UEE5); conditions: STK17A (DRAK1), LanthaScreen Binding
T2 sequence (Q9UEE5 1-414): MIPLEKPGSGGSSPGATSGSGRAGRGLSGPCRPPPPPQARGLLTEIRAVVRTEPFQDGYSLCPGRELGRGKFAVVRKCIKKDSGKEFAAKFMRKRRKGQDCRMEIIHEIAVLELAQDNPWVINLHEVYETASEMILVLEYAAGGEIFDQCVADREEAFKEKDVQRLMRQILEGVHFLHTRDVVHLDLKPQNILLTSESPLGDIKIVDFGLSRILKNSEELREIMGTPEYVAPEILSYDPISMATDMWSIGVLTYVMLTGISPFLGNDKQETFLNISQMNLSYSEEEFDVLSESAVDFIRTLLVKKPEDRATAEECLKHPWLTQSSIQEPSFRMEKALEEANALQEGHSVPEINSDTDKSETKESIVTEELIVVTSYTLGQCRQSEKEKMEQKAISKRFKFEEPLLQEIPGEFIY

off-target kinases [6] = molecular target: off-target kinases (Homo sapiens, UniProt Q9UM73, C1156Y); conditions: ALK C1156Y (mutant), LanthaScreen Binding
off-target kinases (Homo sapiens, UniProt Q9UM73, C1156Y), sequence (Q9UM73 19-1620 C1156Y): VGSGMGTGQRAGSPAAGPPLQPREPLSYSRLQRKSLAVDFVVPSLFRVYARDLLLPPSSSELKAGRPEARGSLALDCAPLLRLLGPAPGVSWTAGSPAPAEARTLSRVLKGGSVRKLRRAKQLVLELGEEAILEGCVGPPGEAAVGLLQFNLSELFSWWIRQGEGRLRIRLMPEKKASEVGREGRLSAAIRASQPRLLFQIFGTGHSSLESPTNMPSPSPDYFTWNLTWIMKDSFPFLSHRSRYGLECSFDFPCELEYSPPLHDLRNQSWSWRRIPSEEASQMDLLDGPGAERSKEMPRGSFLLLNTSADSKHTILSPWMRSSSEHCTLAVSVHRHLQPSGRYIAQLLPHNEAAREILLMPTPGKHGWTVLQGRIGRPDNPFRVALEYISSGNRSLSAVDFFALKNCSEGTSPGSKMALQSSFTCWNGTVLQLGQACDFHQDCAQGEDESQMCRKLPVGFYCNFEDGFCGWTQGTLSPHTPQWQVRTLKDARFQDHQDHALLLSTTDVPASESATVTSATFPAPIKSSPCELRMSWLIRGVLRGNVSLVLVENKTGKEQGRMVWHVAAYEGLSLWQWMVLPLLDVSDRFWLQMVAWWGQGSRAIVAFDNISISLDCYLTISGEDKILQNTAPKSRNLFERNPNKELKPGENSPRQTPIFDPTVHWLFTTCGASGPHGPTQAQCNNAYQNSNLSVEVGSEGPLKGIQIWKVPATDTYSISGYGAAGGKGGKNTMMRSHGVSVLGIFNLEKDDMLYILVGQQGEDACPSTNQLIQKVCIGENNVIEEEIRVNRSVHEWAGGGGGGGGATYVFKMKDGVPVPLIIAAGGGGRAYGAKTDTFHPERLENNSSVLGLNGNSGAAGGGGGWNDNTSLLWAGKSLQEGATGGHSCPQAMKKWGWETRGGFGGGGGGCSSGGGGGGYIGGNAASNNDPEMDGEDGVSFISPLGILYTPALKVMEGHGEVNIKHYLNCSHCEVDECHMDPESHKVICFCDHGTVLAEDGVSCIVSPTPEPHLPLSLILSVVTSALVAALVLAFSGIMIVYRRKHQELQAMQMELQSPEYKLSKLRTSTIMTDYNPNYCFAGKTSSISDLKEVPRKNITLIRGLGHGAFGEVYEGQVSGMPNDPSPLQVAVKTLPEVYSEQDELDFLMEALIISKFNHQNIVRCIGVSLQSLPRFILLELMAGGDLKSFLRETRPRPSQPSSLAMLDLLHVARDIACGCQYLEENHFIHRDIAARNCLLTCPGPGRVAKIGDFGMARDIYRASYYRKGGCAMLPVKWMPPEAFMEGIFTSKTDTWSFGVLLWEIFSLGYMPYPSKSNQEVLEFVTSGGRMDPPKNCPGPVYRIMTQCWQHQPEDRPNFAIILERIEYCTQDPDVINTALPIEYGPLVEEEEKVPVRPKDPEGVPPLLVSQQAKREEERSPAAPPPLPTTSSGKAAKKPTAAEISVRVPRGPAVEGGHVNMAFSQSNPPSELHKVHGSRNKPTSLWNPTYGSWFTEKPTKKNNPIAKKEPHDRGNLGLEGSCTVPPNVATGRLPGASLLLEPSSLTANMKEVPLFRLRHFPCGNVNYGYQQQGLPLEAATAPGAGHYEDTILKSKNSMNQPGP

N#Cc1cc(-c2ncnc(Nc3ccc(N4CCN(C5COC5)CC4)cc3)n2)ccc1OC1CCOCC1 [Compound 1, 5-(4-((4-(4-(oxetan-3-yl)piperazin-1-yl)phenyl)amino)-1,3,5-triazin-2-yl)-2-((tetrahydro-2H-pyran-4-yl)oxy)benzonitrile]
inhibition (off-target kinases [1]; read-out: % Inhibition 1): 3%
inhibition (off-target kinases [1]; read-out: % Inhibition 2): -7%
inhibition (off-target kinases [1]; read-out: % Inhibition Avg): -2%
inhibition (off-target kinases [2]; read-out: % Inhibition 1): 33%
inhibition (off-target kinases [2]; read-out: % Inhibition 2): 34%
inhibition (off-target kinases [2]; read-out: % Inhibition Avg): 33%
inhibition (off-target kinases [3]; LanthaScreen Binding, read-out: % Inhibition 1): 57%
inhibition (off-target kinases [3]; LanthaScreen Binding, read-out: % Inhibition 2): 56%
inhibition (off-target kinases [3]; LanthaScreen Binding, read-out: % Inhibition Avg): 57%
inhibition (off-target kinases [3]; ZLYTE, ATP 100, read-out: % Inhibition 1): 33%
inhibition (off-target kinases [3]; ZLYTE, ATP 100, read-out: % Inhibition 2): 18%
inhibition (off-target kinases [3]; ZLYTE, ATP 100, read-out: % Inhibition Avg): 25%
inhibition (off-target kinases [4]; read-out: % Inhibition 1): 99%
inhibition (off-target kinases [4]; read-out: % Inhibition 2): 95%
inhibition (off-target kinases [4]; read-out: % Inhibition Avg): 97%
inhibition (off-target kinases [5]; read-out: % Inhibition 1): 101%
inhibition (off-target kinases [5]; read-out: % Inhibition 2): 101%
inhibition (off-target kinases [5]; read-out: % Inhibition Avg): 101%
inhibition (off-target kinases [6]; read-out: % Inhibition 1): 7%
inhibition (off-target kinases [6]; read-out: % Inhibition 2): 12%
inhibition (off-target kinases [6]; read-out: % Inhibition Avg): 9%
